Experimental data as given in patent US20260001875A1, “AMINOPYRIMIDINYL DERIVATIVES FOR THE TREATMENT OF PARKINSON'S DISEASE” (UNIVERSITY OF DUNDEE, priority 2022, published 2026).

Experiments:
Rab10 pThr73 [1] = assay: Rab10 Thr73 dephosphorylation (immunoblot) in LRRK2^G2019S MEFs; format: cell-based, mouse; details: Mus musculus, 1 μM/4 h treatment; read-out: pRab10 inhibited in LRRK2^G2019S MEFs
LRRK2^WT = assay: Western blot LRRK2 degradation in WT MEFs; format: cell-based, mouse; details: WT MEFs and LRRK2^G2019S MEFs
Rab10 pThr73 [2] = assay: Rab10 Thr73 dephosphorylation (immunoblot) in WT MEFs; format: cell-based, mouse; details: Mus musculus, read-out: pRab10 inhibited in WT MEFs
Summary of the method: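 Wild-type mouse embryonic fibroblasts in 6-well plates were treated with LRRK2 PROTACs, with two biological replicates per condition. Cells were washed in PBS and lysed on ice in buffer containing phosphatase and protease inhibitors plus 1% Triton X-100, then clarified at 15,000 g. Rab10 Thr73 phosphorylation was measured by quantitative immunoblotting of 15 to 20 μg protein on 4-12% Bis-Tris gels.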

Rab10 pThr73 [3] = assay: Rab10 Thr73 dephosphorylation (immunoblot) in LRRK2^G2019S MEFs; format: cell-based; details: Mus musculus, read-out: pRab10 inhibited in LRRK2^G2019S MEFs

Question: Which results are given for `CNc1nc(Nc2ccc(C(=O)N3CCN(CCCSC(C)(C)[C@H](NC(=O)C4(F)CC4)C(=O)N4C[C@H](O)C[C@H]4C(=O)NCc4ccc(-c5scnc5C)cc4)CC3)cc2OC)ncc1Cl` [SD82, (2S,4R)-1-((R)-3-((3-(4-(4-((5-chloro-4-(methylamino)pyrimidin-2-yl)amino)-3-methoxybenzoyl)piperazin-1-yl)propyl)thio)-2-(1-fluorocyclopropane-1-carboxamido)-3-methylbutanoyl)-4-hydroxy-N-(4-(4-methylthiazol-5-yl)benzyl)pyrrolidine-2-carboxamide]?
Answer: inhibition at 1 µM (Rab10 pThr73 [1]): 30 to 95%; LRRK2 degradation (in words) (LRRK2^WT): moderate LRRK2 degradation; inhibition at 0.033 µM (Rab10 pThr73 [2]; 33 nM/4 h treatment): 0 to 25%; inhibition at 1 µM (Rab10 pThr73 [2]; 1 μM/4 h treatment): 18 to 90%; inhibition at 1 µM (Rab10 pThr73 [2]; 1 μM/24 h treatment): 30 to 90%; inhibition at 0.033 µM (Rab10 pThr73 [3]; 33 nM/4 h treatment): 0 to 60%; inhibition at 0.033 µM (Rab10 pThr73 [3]; 33 nM/24 h treatment): 0 to 70%
